Measured values: patent US6506392B2, “Theraputic topical solution for skin and associated methods of use” (priority 2000, dated 2003)

System: skin exhibiting psoriasis
Test: topical application to skin exhibiting psoriasis (Example 1)
Assay type: in vivo, human
Settings: one subject, treatments used before the solution
Description: A further understanding of the present invention will be afforded by a consideration of the following non-limiting examples. In these examples, the “full strength” 100% solution was utilized. These examples are illustrative of the principals of the present invention and are not intended to limit the scope of the invention to the exemplary uses and formulations.
Three subjects, two male and one […], suffering from psoriasis, applied the solution to areas on their bodies and rubbed in the solution with their fingertips several times per day or as needed. Areas of application included knees and elbows.
It is important to note that some of the subjects had suffered from psoriasis for an extended period of time and had tried a variety of treatments. One subject had previously utilized various tars, cortisones, temovate and methotrexate treatments.

CN(Cc1cnc2nc(N)nc(N)c2n1)c1ccc(C(=O)N[C@@H](CCC(=O)O)C(=O)O)cc1 [methotrexate]
outcome of previous psoriasis treatments: without success

CCC(=O)O[C@]1(C(=O)CCl)[C@@H](C)C[C@H]2[C@@H]3CCC4=CC(=O)C=C[C@]4(C)[C@@]3(F)[C@@H](O)C[C@@]21C [temovate]
outcome of previous psoriasis treatments: without success
